According to article PMC8149352 (Cancer Chemotherapy and Pharmacology, 2021):
Several values for one entry are separate records, joined by “and”; a condition that tells them apart may be missing. Equal entries are not always repeated. Where two headings read alike, the source gives them in different places.

Columns and labels:
P-glycoprotein = system: P-glycoprotein; parameters: method as in PMID 32652442; conditions: cited from earlier work
[1] = system: cytochromes P450 3A (CYP3A) and P450 2C8; parameters: method as in unpublished data; conditions: in vitro phenotyping study; ref unpublished data; cited from earlier work
[2] = Part A safety: adverse events (NCI CTCAE v5.0), safety population; type: in vivo, human (patients with advanced solid tumors)
Protocol: This was an open-label, parallel-group, phase 1 study consisting of a 2-part core phase and an extension phase. Only results for the core phases are reported herein (Supplementary Fig. 1). […] Blood samples for PK analysis were obtained on days 1 and 10 at predose, and at 0.5, 1, 2, 4, 6, 9, 12, 24, and 48 h postdose. Pamiparib plasma concentrations were determined using a validated liquid chromatography–mass spectrometry/mass spectrometry method (lower limit of quantification 1.0 ng/mL) at Covance Laboratory Services (Salt Lake City, Utah).
(§1) Adverse events (AEs) were monitored throughout the study and were graded according to the National Cancer Institute Common Terminology Criteria v5.0.
(§2) The safety population included all patients who received at least one dose of pamiparib. […] Plasma PK parameters were calculated from pamiparib concentration–time profiles using standard noncompartmental methods. PK parameters were calculated using Phoenix WinNonlin v6.4 or higher (Certara, Princeton, NJ, USA). […] Data for each treatment part were analyzed separately. Log-transformed AUC and Cmax values were analyzed using a linear mixed-effect model analysis assuming a fixed effect for treatment and a random effect for patients. The study design called for ~ 24 patients (12 in each part) to be enrolled to ensure at least 20 (10 in each part) completed the study. This sample size was based on the precedent set by other PK studies of a similar nature and was not based on power calculations.

[3] = system: poly(ADP-ribose) synthesis in peripheral blood mononuclear cells; parameters: method as in earlier work; conditions: pamiparib doses of 10 mg or higher; cited from earlier work
[4] = Part B safety: adverse events (NCI CTCAE v5.0), safety population; type: in vivo, human (patients with solid tumors)
Protocol: (§3) Part B of the core phase assessed the effect of the strong CYP3A inhibitor itraconazole on the PK of pamiparib in patients with solid tumors. All patients received a single dose of oral pamiparib 20 mg on days 1 and 7, and oral itraconazole 200 mg QD on days 3–8. The 20-mg pamiparib dose, the lowest dose strength available and one-sixth of the highest phase 1 dose (120 mg), was deemed sufficient to cover the plasma exposure increase due to complete blockade of CYP3A by itraconazole. Part B patients fasted for at least 8 h before and at least 4 h after pamiparib administration, except for day 7 upon which itraconazole administration occurred ~ 30 min after completing a meal and pamiparib administration followed within 5 min of itraconazole administration. Blood samples for PK analysis were obtained on days 1 and 7 at the same time points listed above for Part A. After completing the core phase in Part A and Part B, patients were offered participation in the extension phase, in which they were to receive pamiparib PO BID in 28-day cycles until disease progression, unacceptable toxicity, withdrawal of consent, or any other reason for discontinuation.
as §1, §2

[5] = parameters: method as in not given; conditions: in vitro and animal studies; ref not given; cited from earlier work
[6] = Part A: effect of strong CYP3A inducer rifampin on single-dose pamiparib plasma PK (phase 1 DDI study); type: in vivo, human (patients with advanced solid tumors); conditions: for Tmax: read-out: pamiparib tmax, median (range)
Protocol: This was an open-label, parallel-group, phase 1 study consisting of a 2-part core phase and an extension phase. Only results for the core phases are reported herein (Supplementary Fig. 1). […] Blood samples for PK analysis were obtained on days 1 and 10 at predose, and at 0.5, 1, 2, 4, 6, 9, 12, 24, and 48 h postdose. Pamiparib plasma concentrations were determined using a validated liquid chromatography–mass spectrometry/mass spectrometry method (lower limit of quantification 1.0 ng/mL) at Covance Laboratory Services (Salt Lake City, Utah). […]
as §2

[7] = parameters: method as in earlier work; conditions: cited from earlier work
[8] = Part B: effect of strong CYP3A inhibitor itraconazole on single-dose pamiparib plasma PK (phase 1 DDI study); type: in vivo, human (patients with solid tumors); conditions: for half-life / AUC(0-inf) / AUC(0-t) / Tmax / Cmax: human; for half-life / AUC(0-inf) / AUC(0-t) / Tmax: plasma, oral; for AUC(0-inf): N = 12, read-out: pamiparib AUC0-inf, GLSM (% CV); for AUC(0-t): N = 12, read-out: pamiparib AUC0-tlast, GLSM (% CV); for Tmax: N = 12, read-out: pamiparib tmax, median (range); for Cmax: N = 12, plasma, read-out: pamiparib Cmax, GLSM (% CV)
Protocol: as §3, with “discontinuation. […]” for “discontinuation.”
as §2

[9] = Part A (N = 12), by treatment period
[10] = Part B (N = 13; N = 12 for pamiparib with itraconazole), by treatment period
[11] = Part A, rifampin 600 mg QD coadministration
[12] = pamiparib 20 mg alone, day 1, reference
[13] = pamiparib 20 mg day 7 with itraconazole 200 mg QD, test

Question: What does the source list for `C[C@]12CCCN1CC1=NNC(=O)c3cc(F)cc4[nH]c2c1c34` [Pamiparib]?
Answer: P-glycoprotein substrate status (P-glycoprotein): not a substrate of P-glycoprotein; enzymes mediating metabolism [1]: primarily mediated by cytochromes P450 3A (CYP3A) and P450 2C8; All TEAEs (any grade), patients [2, 9]: 1 (8.3) n (%); Any treatment-related TEAE, patients [2, 9]: 0 n (%); Grade >= 3 TEAE, patients [2, 9]: 0 n (%); Serious AE, patients [2, 9]: 0 n (%); Treatment-related TEAE related to both, patients [2, 9]: 0 n (%); Treatment-related TEAE related to pamiparib only, patients [2, 9]: 0 n (%); Treatment-related TEAE related to rifampin only, patients [2, 9]: 0 n (%); tolerability ([2]; single dose 60 mg pamiparib alone or coadministered with 600 mg rifampin): well tolerated; sustained inhibition of poly(ADP-ribose) synthesis in peripheral blood mononuclear cells [3]: ~ 80%; All TEAEs (any grade), patients [4, 10]: 2 (15.4) n (%); Any treatment-related TEAE, patients [4, 10]: 1 (7.7) n (%); Grade >= 3 TEAE, patients [4, 10]: 0 n (%); Serious AE, patients [4, 10]: 0 n (%); Treatment-related TEAE related to both, patients [4, 10]: 0 n (%); Treatment-related TEAE related to itraconazole only, patients [4, 10]: 0 n (%); Treatment-related TEAE related to pamiparib only, patients [4, 10]: 1 (7.7) n (%); Serious AE related to both, patients ([4]; Part B, by treatment period): 0 n (%); Serious AE related to itraconazole only, patients ([4]; Part B, by treatment period): 0 n (%); Serious AE related to pamiparib only, patients ([4]; Part B, by treatment period): 0 n (%); tolerability ([4]; single dose 20 mg pamiparib alone or coadministered with 200 mg itraconazole): well tolerated; clastogenicity [5]: clastogenic activity; reduction of pamiparib plasma exposure (AUC) with rifampin coadministration ([6]; Part A, AUC0-tlast to AUC0-inf): 38–43%; reduction of pamiparib AUC0-inf (geometric mean) with rifampin versus day 1 [6, 11]: ~43%; reduction of pamiparib AUC0-tlast (geometric mean) with rifampin versus day 1 [6, 11]: ~ 38% and 38%; half-life ([6]; human, plasma, oral, 60 mg, Part A, pamiparib 60 mg alone, day 1, reference, N = 9, read-out: pamiparib t1/2, median (range) (converted)): 13.4 h; half-life ([6]; human, plasma, oral, 60 mg, Part A, pamiparib 60 mg alone, read-out: pamiparib mean t1/2 (converted)): 12.5 h; half-life ([6]; human, plasma, oral, Part A, pamiparib 60 mg day 10 with rifampin 600 mg QD, test, N = 11, read-out: pamiparib t1/2, median (range) (converted)): 7.7 h; half-life ([6]; human, plasma, oral, Part A, pamiparib 60 mg in combination with rifampin, read-out: pamiparib mean t1/2 (converted)): 7.94 h; AUC(0-inf) ([6]; human, plasma, oral, Part A, pamiparib 60 mg alone, day 1, reference, N = 9, read-out: pamiparib AUC0-inf, GLSM (% CV)): 29500 ng·h/mL; AUC(0-t) ([6]; human, plasma, oral, Part A, pamiparib 60 mg alone, day 1, reference, N = 11, read-out: pamiparib AUC0-tlast, GLSM (% CV)): 28800 ng·h/mL; Tmax ([6]; human, plasma, oral, Part A, pamiparib 60 mg alone, day 1, reference, N = 11): 2 h; Tmax ([6]; human, plasma, oral): 2 h; Cmax ([6]; human, Part A, single oral pamiparib 60 mg alone, day 1, reference, N = 11, plasma, read-out: pamiparib Cmax, GLSM (% CV)): 1990 ng/mL; accumulation ratio for AUC (95% CI) ([7]; 60 mg BID): 2.37 (95% CI, 1.61–3.50); accumulation ratio for Cmax (95% CI) ([7]; 60 mg BID): 1.99 (95% CI, 1.47–2.69); geometric mean half-life ([7]; 60 mg BID): 13.5 h; tolerability ([7]; first-in-human study): well tolerated; median time to maximum concentration (tmax) ([7]; first-in-human study, oral): 1 to 2 h; anti-tumor activity ([7]; patients with high-grade epithelial non-mucinous ovarian cancer): preliminary anti-tumor activity; half-life ([8]; 20 mg, pamiparib 20 mg alone, day 1, reference, N = 12, read-out: pamiparib t1/2, median (range) (converted)): 9.3 h; AUC(0-inf) [8, 12]: 8440 ng·h/mL; AUC(0-t) [8, 12]: 7840 ng·h/mL; Tmax [8, 12]: 2 h; AUC(0-inf) [8, 13]: 8380 ng·h/mL; AUC(0-t) [8, 13]: 7790 ng·h/mL; half-life ([8]; pamiparib 20 mg day 7 with itraconazole 200 mg QD, test, N = 12, read-out: pamiparib t1/2, median (range) (converted)): 11.2 h; Tmax [8, 13]: 1 h; half-life ([8]; pamiparib 20 mg in combination with itraconazole, read-out: pamiparib mean t1/2 (converted)): 12 h; Cmax ([8]; single oral pamiparib 20 mg alone, day 1, reference): 665 ng/mL; Cmax ([8]; single oral pamiparib 20 mg on day 7 with itraconazole 200 mg QD (days 3-8), test): 699 ng/mL; pamiparib mean t1/2 ([8]; pamiparib 20 mg alone): 11.9 h
